# Results published in the NIST ThermoML archive (doi:10.1016/j.fluid.2013.02.001).
# Numbers after ± are expanded uncertainties.
# Conditions: Crystal; Phase equilibration
structure (smiles),measurement,value
O=C([O-])CCP(=O)(O)c1ccccc1.[Na+] [monosodium 3-(hydroxyphenylphosphinyl)propanoate],Normal melting temperature,231 ± 0.7 °C
